How the values were obtained:
[1] = biological target: T1, Proteinase-activated receptor 1 (Homo sapiens, UniProt P25116); experiment: Inhibitory concentration against potent thrombin receptor-1 (PAR-1) on human platelets
T1 sequence (P25116 whole entry): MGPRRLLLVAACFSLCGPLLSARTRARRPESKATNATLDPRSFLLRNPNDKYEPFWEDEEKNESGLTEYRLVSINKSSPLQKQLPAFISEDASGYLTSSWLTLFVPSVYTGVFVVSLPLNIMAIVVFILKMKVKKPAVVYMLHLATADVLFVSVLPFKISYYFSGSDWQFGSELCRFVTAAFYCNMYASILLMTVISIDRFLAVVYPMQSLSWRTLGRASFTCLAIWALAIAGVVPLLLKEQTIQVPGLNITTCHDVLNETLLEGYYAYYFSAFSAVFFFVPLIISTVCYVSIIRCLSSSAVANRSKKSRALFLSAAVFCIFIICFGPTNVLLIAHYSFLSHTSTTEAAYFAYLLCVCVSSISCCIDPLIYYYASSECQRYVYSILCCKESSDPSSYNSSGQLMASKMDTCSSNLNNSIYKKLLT

[2] = biological target: T1, Proteinase-activated receptor 1; experiment: Inhibitory concentration against potent thrombin receptor-1 (PAR-1) on human platelets; Inactive
Homo sapiens [3] = species: Homo sapiens; experiment: Inhibition of human platelet aggregation induced by high affinity thrombin receptor agonist peptide( ha-TRAP); type: functional
Homo sapiens [4] = species: Homo sapiens; experiment: Inhibition of human platelet aggregation induced by thrombin; type: functional

| IC50 [1] [nM] | IC50 [2] | Compound | other results |
| --- | --- | --- | --- |
| 734 |  | CC(C)(C)c1ccc(Cn2c(=N)n(CC(=O)c3cc(C(C)(C)C)c(O)c(C(C)(C)C)c3)c3ccccc32)cc1 |  |
|  | Not Active | O=C(Cn1c(=O)n(Cc2ccccc2)c2ccccc21)c1ccc(O)c(O)c1 |  |
|  | Not Active | Cn1c(=O)n(CC(=O)c2cc(C(C)(C)C)c(O)c(C(C)(C)C)c2)c2ccccc21 |  |
|  | Not Active | COc1ccc(OC)c(C(=O)Cn2c(=O)n(Cc3ccccc3)c3ccccc32)c1 |  |
|  | Not Active | Cc1ccc(C(=O)Cn2c(=O)n(Cc3ccccc3)c3ccccc32)c(C)c1 |  |
|  | Not Active | Cc1cc(C(=O)Cn2c(=O)n(Cc3ccccc3)c3ccccc32)ccc1Cl |  |
| 900 |  | Cn1c(=N)n(CC(=O)c2cc(C(C)(C)C)c(O)c(C(C)(C)C)c2)c2ccccc21 |  |
|  | Not Active | CCC(=O)c1cc(C(C)(C)C)c(O)c(C(C)(C)C)c1 |  |
|  | Not Active | O=C(Cn1c(=O)n(Cc2ccccc2)c2ccccc21)c1ccc(Br)cc1 |  |
| 2870 |  | CC(C)(C)c1cc(C(=O)Cn2c(=N)n(CCN3CCCCC3)c3ccccc32)cc(C(C)(C)C)c1O |  |
|  | Not Active | Cc1ccc(C(=O)Cn2c(=O)n(Cc3ccccc3)c3ccccc32)cc1 |  |
| 98 |  | CC(C)(C)c1cc(C(=O)Cn2c(=N)n(CCN3CCOCC3)c3ccccc32)cc(C(C)(C)C)c1O | IC50 (Homo sapiens [3]): 2000 nM; IC50 (Homo sapiens [4]): > 10000 nM |
|  | Not Active | O=C(Cn1c(=O)n(Cc2ccccc2)c2ccccc21)c1ccc(F)cc1 |  |
| 964 |  | CCCCCCCn1c(=N)n(CC(=O)c2cc(C(C)(C)C)c(O)c(C(C)(C)C)c2)c2ccccc21 |  |
| 1320 |  | CC(C)(C)c1cc(C(=O)Cn2c(=N)n(Cc3ccc(Cl)c(Cl)c3)c3ccccc32)cc(C(C)(C)C)c1O |  |
| 65 |  | CC(C)(C)c1cc(C(=O)Cn2c(=N)n(Cc3ccccc3)c3ccccc32)cc(C(C)(C)C)c1O | IC50 (Homo sapiens [3]): 265 nM; IC50 (Homo sapiens [4]): 600 nM |
| 33 |  | Cc1ccc(Cn2c(=N)n(CC(=O)c3cc(C(C)(C)C)c(O)c(C(C)(C)C)c3)c3ccccc32)cc1 | IC50 (Homo sapiens [3]): 575 nM; IC50 (Homo sapiens [4]): 1500 nM |
|  | Not Active | O=C(Cn1c(=O)n(Cc2ccccc2)c2ccccc21)c1ccc(Cl)cc1Cl |  |
| 359 |  | CCCCn1c(=N)n(CC(=O)c2cc(C(C)(C)C)c(O)c(C(C)(C)C)c2)c2ccccc21 | IC50 (Homo sapiens [3]): 825 nM; IC50 (Homo sapiens [4]): 10000 nM |
|  | Not Active | N#Cc1ccc(C(=O)Cn2c(=O)n(Cc3ccccc3)c3ccccc32)cc1 |  |
| 1500 |  | CC(C)(C)c1cc(C(=O)Cn2c(N)nc3ccccc32)cc(C(C)(C)C)c1O |  |

Source: ChEMBL document CHEMBL1133830, “Potent, low molecular weight thrombin receptor antagonists” (Bioorg Med Chem Lett, 2001)
